Results as given in patent US12552753B2, “Methods and compositions for targeting Tregs using CCR8 inhibitors” (Nanjing Immunophage Biomedical Co., Ltd., priority 2020, dated 2026).
Where a name gives a salt, the structure may show the parent alone.

target: CCR8 (Homo sapiens, UniProt P51685); test: Tango assay (Tango-CCR8-Gal4-CHO-K1 cells, CCL1-stimulated, ONE-Glo luminescence); conditions: Tango Assay IC50, Inhibition of CCR8 Tango cell in vitro
Sequence (P51685 whole entry, the tested form may be a part): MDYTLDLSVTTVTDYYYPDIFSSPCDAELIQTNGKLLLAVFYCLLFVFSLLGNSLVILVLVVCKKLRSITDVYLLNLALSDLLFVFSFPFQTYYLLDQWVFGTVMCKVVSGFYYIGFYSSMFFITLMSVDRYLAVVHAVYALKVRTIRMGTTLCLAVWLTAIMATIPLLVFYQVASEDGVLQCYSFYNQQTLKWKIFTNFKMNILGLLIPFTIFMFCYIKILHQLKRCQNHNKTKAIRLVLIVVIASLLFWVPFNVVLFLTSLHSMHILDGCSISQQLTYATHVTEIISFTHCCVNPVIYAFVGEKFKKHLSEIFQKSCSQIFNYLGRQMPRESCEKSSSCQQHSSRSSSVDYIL

IC50 [nM]	Structure (SMILES)
3	Cc1ccccc1C(=O)Nc1c(F)cc(S(=O)(=O)N[C@H](C)C2CCNCC2)cc1Cl [Compound 304, (R)-N-(2-chloro-6-fluoro-4-(N-(1-(piperidin-4-yl)ethyl)sulfamoyl)phenyl)-2-methylbenzamide hydrochloride]
6	Cc1ccccc1C(=O)Nc1ccc(S(=O)(=O)N[C@H](C)C2CCN(C)CC2)c(F)c1C [Compound 278, (R)-N-(3-fluoro-2-methyl-4-(N-(1-(1-methylpiperidin-4-yl)ethyl)sulfamoyl)phenyl)-2-methylbenzamide hydrochloride]
> 10000	CCCN1CCN(c2ccc(C)c(NS(=O)(=O)c3ccc(NC(=O)c4ccccc4C)c4ccccc34)c2)CC1 [Compound 93, 2-methyl-N-(4-(N-(2-methyl-5-(4-propylpiperazin-1-yl)phenyl)sulfamoyl)naphthalen-1-yl)benzamide]
> 10000	Cc1ccccc1C(=O)Nc1ccc(S(=O)(=O)Nc2ccc3c(c2)C(N(C)C(=O)CN(C)C)CCC3)c2ccccc12 (stereo not drawn) [Compound 97, N-(4-(N-(8-(2-(dimethylamino)-N-methylacetamido)-5,6,7,8-tetrahydronaphthalen-2-yl)sulfamoyl)naphthalen-1-yl)-2-methylbenzamide]
1080	CC(=O)N1CCC(NS(=O)(=O)c2ccc(NC(=O)c3ccccc3C)c3ccccc23)c2ccccc21 (stereo not drawn) [Compound 31, N-(4-(N-(1-acetyl-1,2,3,4-tetrahydroquinolin-4-yl)sulfamoyl)naphthalen-1-yl)-2-methylbenzamide]
369	Cc1cc(S(=O)(=O)NCC2CCN(C)CC2)ccc1NC(=O)c1ccccc1C [Compound 238, 2-methyl-N-(2-methyl-4-(N-((1-methylpiperidin-4-yl)methyl)sulfa-moyl)phenyl)benza-mide]
> 100000	Cc1cc(S(=O)(=O)N[C@H](C)C2CCN(C)CC2)ccc1NC1(c2ccccc2)COC1 [Compound 299, (R)-3-methyl-N-(1-(1-methylpiperidin-4-yl)ethyl)-4-((3-phenyloxetan-3-yl)amino) benzene-sulfonamide]
26	Cc1cc(S(=O)(=O)N[C@H](C)C2CCNCC2)c(F)cc1NC(=O)c1ccccc1C [Compound 175, (R)-N-(5-fluoro-2-methyl-4-(N-(1-(piperidin-4-yl)ethyl)sulfamoyl)phen-yl)-2-methylbenzamide]
2	Cc1cc(S(=O)(=O)N[C@H](C)C2CCNCC2)ccc1NC(=O)c1ccc(Cl)cc1C [Compound 256A, (R)-4-chloro-2-methyl-N-(2-methyl-4-(N-(1-(piperidin-4-yl)ethyl)sulfamoyl)phenyl)benzamide hydrochloride]
10	Cc1cc(S(=O)(=O)N[C@H](C)C2CCN(C)CC2)ccc1NC(=O)c1ccc(F)cc1C [Compound 276, (R)-4-fluoro-2-methyl-N-(2-methyl-4-(N-(1-(1-methylpiperidin-4-yl)ethyl)sulfamoyl)phenyl) benzamide hydrochloride]
685	CCOC(=O)C(C)(C)C(C)NS(=O)(=O)c1ccc(NC(=O)c2ccccc2C)c(C)c1 (stereo not drawn) [Compound 232, ethyl 2,2-dimethyl-3-(3-methyl-4-(2-methylbenzamido)phenylsulfonamido) butanoate]
> 100000	Cc1cc(S(=O)(=O)N(C)[C@H](C)C2CCNCC2)ccc1NC(=O)c1ccccc1C [Compound 237A, (R)-2-methyl-N-(2-methyl-4-(N-methyl-N-(1-(piperidin-4-yl)ethyl)sulfamoyl)phenyl)benzamide hydrochloride]
> 10000	O=S(=O)(NC1CCOCC1)c1ccc(-c2nc3ccccc3[nH]2)cc1 [Compound 109, 4-(1H-benzo[d]imidazol-2-yl)-N-(tetrahydro-2H-pyran-4-yl)benzenesulfonamide]
50	Cc1cc(S(=O)(=O)N[C@H](C)C2CCN(C)CC2)ccc1NC(=O)c1c(C)cccc1F [Compound 270, (R)-2-fluoro-6-methyl-N-(2-methyl-4-(N-(1-(1-methylpiperidin-4-yl)ethyl)sulfamoyl)phenyl) benzamide]
> 10000	Cc1ccccc1NC(=O)c1ccc(S(=O)(=O)NC(C)C2CCCCC2)cc1 (stereo not drawn) [Compound 111, 4-(N-(1-cyclohexylethyl)sulfam-oyl)-N-(o-tolyl)benzamide]
11	Cc1ccccc1C(=O)Nc1ccc(S(=O)(=O)N[C@H](C)C2CCN(C)CC2)c(F)c1Cl [Compound 264, (R)-N-(2-chloro-3-fluoro-4-(N-(1-(1-methylpiperidin-4-yl)ethyl)sulfamoyl)phenyl)-2-methylbenzamide]

IC50 [nM]	Structure (SMILES)
> 100000	CCN1CCCN(C(c2cccc(NS(=O)(=O)c3ccc4ccccc4c3)c2)C(F)(F)F)CC1 (stereo not drawn) [Compound 279, N-(3-(1-(4-ethyl-1,4-diazepan-1-yl)-2,2,2-trifluoroethyl)phenyl)naphthalene-2-sulfonamide]
1.6	Cc1ccccc1C(=O)Nc1ccc(S(=O)(=O)N[C@H](C)C2CCCCC2)c2ccccc12 [Compound 59, (R)-N-(4-(N-(1-cyclohexylethyl)sulfamo-yl)naphthalen-1-yl)-2-methylbenzamide]
> 10000	CCCN1CCN(c2ccc(OC)c(NS(=O)(=O)c3ccc(NC(=O)c4ccccc4C)c4ccccc34)c2)CC1 [Compound 3, N-(4-(N-(2-methoxy-5-(4-propylpiperazin-1-yl)phenyl)sulfamoyl)naphthalen-1-yl)-2-methylbenzamide]
7.6	Cc1ccccc1C(=O)Nc1ccc(S(=O)(=O)NC(C)CC2CCCCC2)c2ccccc12 (stereo not drawn) [Compound 75, N-(4-(N-(1-cyclohexylpropan-2-yl)sulfamoyl)naphthalen-1-yl)-2-methylbenzamide]
> 10000	CCCC(=O)NC12CC(NS(=O)(=O)c3ccc(NC(=O)c4ccccc4C)c4ccccc34)(C1)C2 [Compound 43, N-(4-(N-(3-butyramidobicyclo[1.1.1]pentan-1-yl)sulfamoyl)naphthalen-1-yl)-2-methylbenzamide]
> 10000	CCN(C)C(=O)C12CC(NS(=O)(=O)c3ccc(NC(=O)c4ccccc4C)c4ccccc34)(C1)C2 [Compound 64, N-ethyl-N-methyl-3-(4-(2-methylbenzamido)naph-thalene-1-sulfonamido)bicyclo [1.1.1]pentane-1-carboxamide]
30	Cc1cc(S(=O)(=O)NC(C)C2CCNCC2)ccc1NC(=O)c1ccccc1Cl (stereo not drawn) [Compound 255, 2-chloro-N-(2-methyl-4-(N-(1-(piperidin-4-yl)ethyl)sulfamoyl)phenyl)benzamide]
378	Cc1ccccc1C(=O)Nc1ccc(S(=O)(=O)N[C@H](C)C2CCN(C(=O)OC(C)(C)C)CC2)c(Cl)c1C [Compound 178, (R)-tert-butyl 4-(1-(2-chloro-3-methyl-4-(2-methylbenzmido)phen-ylsulfonamido)ethyl)pi-perridine-1-carboxylate]
0.2	Cc1ccccc1C(=O)Nc1ccc(S(=O)(=O)NC(C)C23CC4CC(CC(C4)C2)C3)c2ccccc12 (stereo not drawn) [Compound 84, N-(4-(N-(1-((3r,5r,7r)-adamantan-1-yl)ethyl)sulfamoyl)naph-thalen-1-yl)-2-methylbenzamide]
> 10000	COC(=O)CN1CCCCC1C(C)NS(=O)(=O)c1ccc(NC(=O)c2ccccc2C)c2ccccc12 (single isomer, unassigned) [Compound 70B, methyl 2-(2-(1-(4-(2-methylbenzamido)naph-thalene-1-sulfonamido)ethyl)piper-idin-1-yl)acetate]
3.7	Cc1cc(S(=O)(=O)NC(C)C2CC3CCC2CC3)c(C)cc1NC(=O)c1ccccc1C (stereo not drawn) [Compound 170, N-(4-(N-(1-(bicyclo[2.2.2]octan-2-yl)ethyl)sulfamoyl)-2,5-dimethylphenyl)-2-methylbenzamide]
388	Cc1ccccc1NC(=O)c1ccc(S(=O)(=O)N[C@H](C)C2CCNCC2)cc1C [Compound 113A, (R)-2-methyl-4-(N-(1-(piperidin-4-yl)ethyl)sulfamoyl)-N-(o-tolyl)benzamide]
> 100000	Cc1ccccc1C(=O)Nc1ccc(S(=O)(=O)N[C@H](C)C2CCNCC2)c(C)c1Cl [Compound 245A, (R)-N-(2-chloro-3-methyl-4-(N-(1-(piperidin-4-yl)ethyl)sulfamoyl)phen-yl)-2-methylbenzamide hydrochloride]
764	COc1cccc(C(C)NS(=O)(=O)c2ccc(NC(=O)c3ccccc3C)c3ccccc23)c1 (stereo not drawn) [Compound 73, N-(4-(N-(1-(3-methoxyphenyl)ethyl)sul-famoyl)naphthalen-1-yl)-2-methylbenzamide]
5	Cc1cc(S(=O)(=O)NC(C)C2CC3CCC2CC3)ccc1NC(=O)c1ccccc1C (stereo not drawn) [Compound 162, N-(4-(N-(1-(bicyclo[2.2.2]octan-2-yl)ethyl)sulfamoyl)-2-methylphenyl)-2-methylbenzamide]

Structure (SMILES)	IC50 [nM]
COc1cc(NC(=O)c2ccccc2C)c(C)cc1S(=O)(=O)N[C@H](C)C1CCNCC1 [Compound 314, (R)-N-(5-methoxy-2-methyl-4-(N-(1-(piperidin-4-yl)ethyl)sulfamoyl)phen-yl)-2-methylbenzamide hydrochloride]	17

same assay, conditions: read-out: Tango Assay IC50, Inhibition of CCR8 Tango cell in vitro

IC50 [nM]	Structure (SMILES)
1	Cc1ccccc1C(=O)Nc1c(C)cc(S(=O)(=O)N[C@H](C)C2CCN(C)CC2)cc1Cl [Compound 220, (R)-N-(2-chloro-6-methyl-4-(N-(1-(1-methylpiperidin-4-yl)ethyl)sulfamoyl)phenyl)-2-methylbenzamide]
> 10000	Cc1ccccc1C(=O)Nc1ccc(S(=O)(=O)NC(C)C2CCCN(C(=O)[C@H](C)NC(=O)OC(C)(C)C)C2)c2ccccc12 (single isomer, unassigned) [Compound 157B]
> 10000	Cc1ccccc1C(=O)Nc1ccc(S(=O)(=O)Nc2ccc3c(c2)C(=O)N(CCN(C)C)CCO3)c2ccccc12 [Compound 96, N-(4-(N-(4-(2-(dimethylamino)ethyl)-5-oxo-2,3,4,5-tetrahydrobenzo[f][1,4]oxazepin-7-yl)sulfamoyl)naphthalen-1-yl)-2-methylbenzamide]
> 10000	Cc1ccccc1C(=O)Nc1ccc(S(=O)(=O)NC(C)C2CCCCN2)c2ccccc12 (stereo not drawn) [Compound 69B, 2-methyl-N-(4-(N-(1-(piperidin-2-yl)ethyl)sulfamoyl)naph-thalen-1-yl)benzamide]
